Results taken from ChEMBL document CHEMBL1201862, “PubChem BioAssay data set” (2004).
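Step 1: Grow cells in 96-well plates. Step 2: Expose to compound for 48 hours at 5 concentrations. Step 3: Interpolate endpoints linearly; if unreached, use highest concentration. GI50 marks 50% less growth.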 Active and inactive are the calls of the source. Rule as the data show it: active = GI50 up to about 1.1 µM and inactive = higher.

Key:
Experiment in all cases: DTP human tumour cell line panel, 48 h
[1] = test system: DU-145
[2] = test system: EKVX
[3] = test system: HCT-116
[4] = test system: HL-60
[5] = test system: K562
[6] = test system: MCF7
[7] = test system: NCI-H23
[8] = test system: NCI-H460
[9] = test system: NCI-H522
[10] = test system: PC-3
[11] = test system: RXF 393
[12] = test system: SK-MEL-28
[13] = test system: SK-MEL-2
[14] = test system: SNB-75
[15] = test system: SW-620
[16] = test system: T47D
[17] = test system: TK-10
[18] = test system: COLO 205
[19] = test system: UACC-62
[20] = test system: SK-OV-3

Measured: GI50

C=CCC1(O)c2cccc(O)c2C(=O)c2cccc(O)c21 (stereo not drawn)
inactive: [1] 17.6 µM | [2] 17.4 µM | [3] 14.4 µM | [4] 11.7 µM | [5] 6.71 µM | [6] 19.6 µM | [7] 8.09 µM | [8] 13.9 µM | [9] 9.86 µM | [10] 16.9 µM | [11] 15.7 µM | [12] 20.5 µM | [13] 12 µM | [14] 13.2 µM | [15] 25.2 µM | [16] 4.12 µM | [17] 23.5 µM

CC(C(O)c1ccccc1)[N+](=O)[O-] (stereo not drawn)
inactive: [18] 22.4 µM | [1] 12.7 µM | [2] 30 µM | [3] 37.6 µM | [4] 4.79 µM | [5] 6.44 µM | [6] 3.64 µM | [7] 32.8 µM | [8] 35.2 µM | [9] 8.71 µM | [10] 22.6 µM | [11] 10.9 µM | [12] 19.8 µM | [13] 19.5 µM | [14] 40.6 µM | [15] 8.81 µM | [16] 15.5 µM | [17] 28.6 µM | [19] 20.2 µM

O=C1Nc2ccccc2/C1=N/Nc1nc(-c2cccc([N+](=O)[O-])c2)cs1
inactive: [18] 27.1 µM | [1] 25.6 µM | [2] 22.5 µM | [3] 19.2 µM | [4] 25.1 µM | [6] 23.9 µM | [7] 36.4 µM | [8] 16.9 µM | [9] 20.1 µM | [10] 28.2 µM | [11] 29.5 µM | [12] 19.5 µM | [13] 31.5 µM | [20] 29.9 µM | [14] 20.3 µM | [15] 36.8 µM | [16] 27.3 µM | [17] 19 µM | [19] 26.7 µM

CC(CCC(=O)O)[C@H]1CCC2[C@H]3C(CC(=O)[C@@]21C)[C@@]1(C)CCC(O)C[C@H]1C[C@@H]3O (stereo partly drawn)
inactive: [18] > 100 µM | [1] > 100 µM | [2] > 100 µM | [3] > 100 µM | [4] > 100 µM | [5] > 100 µM | [6] > 100 µM | [7] > 100 µM | [8] > 100 µM | [9] > 100 µM | [10] > 100 µM | [11] > 100 µM | [12] > 100 µM | [13] > 100 µM | [14] > 100 µM | [15] > 100 µM | [16] > 100 µM | [19] > 100 µM
